Data: US20130011845A1, “MICRORNA REGULATING THE INSULIN SIGNALING PATHWAY, AND METHOD FOR SCREENING MATERIAL FOR CONTROLLING THE ACTION OF A TARGET THEREOF” (SNU R & DB Foundation, priority 2009, published 2013)

System: 3′UTR of fog2 mRNA
Assay: luciferase assay with wild-type or mutated miR-200 target sites of FOG2 3′UTR
Assay type: cell-based, human
Settings: Hela cell lines, compared to siGFP
Description: The inventors examined whether human miR-200 family miRNAs regulate the expression by directly binding to 3′ UTR of fog2 mRNA in the same manner as drosophila miR-8 miRNA regulates the expression by directly binding to 3′ UTR of ush mRNA. Specifically, in order to obtain cDNA of FOG2, represented by SEQ ID: 110, from K562 cell lines, total RNA was extracted using RNeasy mini kit (QIAGEN, US). Then, 1 μg of total RNA and 1 μl of Oligo-dT (Invitrogen, US) were charged with up to 50 μl of distilled water, and placed into SuperScript First-Strand Synthesis System (Invitrogen, US), followed by RT-PCR reaction. […] By using pCK-FOG2, primers noted in Table 8, and QuickChange Site-Directed Mutagenesis kit, one (FOG2 m1, FOG2 m2, FOG2 m3), two ((FOG2 m12, FOG2 m23) or three (FOG2 m123) mutants were introduced into three miR-200 target sites of FOG2 3′UTR. Hela cell lines were transfected with wild-type FOG2(FOG2 wt), FOG2 ml, FOG2 m2, FOG2 m3, FOG2 m12, FOG2 m23 or FOG2 m123, together with renilla luciferase expression vector and synthesized siGFP, miR-141/200a or miR-200b/c/429. Then, the activity of luciferase was measured in the same manner as described in Example 8-2. The synthesized miRNA include a mixture of the same levels of miRNAs including respective seed sequences. […]

Row | Substance | expression of luciferase, FOG2 3′UTR
1 | 5′-UAACACUGUCUGGUAAAGAUGG-3′ (listed as RNA, chemistry not given here) [miR-141] | suppressed the expression of luciferase, albeit less effectively than the other members did
2 | 5′-UAACACUGUCUGGUAACGAUGU-3′ (listed as RNA, chemistry not given here) [miR-200a] | suppressed the expression of luciferase, albeit less effectively than the other members did
